The text below walks through data of US20080200424A1, “Preparation for Treating Cancer” (priority 2004, published 2008).

In series [1] the test system is head and neck tumour cell lines SCC9 and SCC25. As to the kind of experiment: Efficacy on tumour cells, cell line not given (cisplatin combinations, best concentration, proliferation). The series is classed as cell-based. Conditions: combined with cisplatin (FIG. 2, FIG. 5); 7β-hydroxycholesterol in small doses. The source says:
(§1) The biological activity of 7β-hydroxycholesterol and caroverin alone and also combined with each other was investigated. The efficacy was checked using the head and neck tumour cell lines SCC9 and SCC25.

For a further series, the system named is healthy cells. The settings on record: does not attack healthy cells; cited from earlier work.
A further series has as its system SCC25. As to the kind of experiment: Efficacy against head and neck tumour cell line SCC25. The settings on record: substance alone, treatment period of 72 hours (FIG. 1). The series is classed as cell-based.
Excerpt: as §1

A further series deals with SCC9. As to the kind of experiment: Efficacy against head and neck tumour cell line SCC9. The series is classed as cell-based. Conditions: substance alone, treatment period of 72 hours (FIG. 1).
Excerpt: as §1

On to `CC(C)CCC[C@@H](C)[C@H]1CC[C@H]2[C@@H]3[C@@H](O)C=C4C[C@@H](O)CC[C@]4(C)[C@H]3CC[C@]12C` [7β-hydroxycholesterol], for which the “synergistic effect combined with cisplatin” value in series [1] was “synergistic effect”. Besides, the toxicity result with healthy cells is given as “completely non-toxic”. Also, the “efficacy against cell line” value with SCC25 and in the series on SCC9 was “effective” each time.
Consider `CCN(CC)CCn1c(=O)c(Cc2ccc(OC)cc2)nc2ccccc21` [caroverin, 1-diethylaminoethyl-3-(p-methoxybenzyl)-1,2-dihydro-quinoxalin-2-one, reference compound], for which the “synergistic effect combined with cisplatin” value in series [1] is recorded as “could not be proved”.
